The subject of the first assay is Human Umbilical Vein Endothelial Cells (HUVECs). The assay is described as follows: Inhibition against sandwich tube formation by vascular endothelial cells in response to stimulation by VEGF. The following applies: HUVEC in collagen gel sandwich, stimulation by VEGF (25 ng/ml VEGF and 10 ng/ml EGF), 4th day, total tube length, read-out: IC50 (concentration required for 50% inhibition of tube formation). It counts as cell-based. The essentials: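 HUVECs were sandwiched between collagen gel layers in serum-free medium with 25 ng/ml VEGF plus 10 ng/ml EGF, with test substance added above the gel at 37 °C. On day 4 tubes were MTT-stained and total tube length measured by image analysis. IC50 is the concentration halving tube length relative to no-compound wells.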
For the molecule `COc1ccc(NC(=O)Nc2ccc(Oc3ccnc4cc(OCCCc5ccncc5)c(C#N)cc34)cc2)cc1` [Example 1], the IC50 stood at 310 nM.
Regarding `COCCOc1cc2nccc(Oc3ccc(NC(=O)Nc4ccccc4)cc3)c2cc1C#N` [Example 65, N-(4-(6-cyano-7-(methoxyethoxy)-4-quinolyl)oxyphenyl)-N′-phenylurea], the IC50 is 5.9 nM.
For the molecule `COCCOc1cc2nccc(Oc3ccc(NC(=O)NC4CC4)cc3)c2cc1C(N)=O` [Example 116, 4-(4-((Cyclopropylamino)carbonyl)aminophenoxy)-7-(2-methoxyethoxy)-6-quinolinecarboxamide], the IC50 was found to be 8.1 nM.

A further assay deals with T1, VEGFR2 (Homo sapiens, UniProt P35968).
T1 construct: coding for the cytoplasmic domain, beginning with lysine 791 and including the termination codon; made in house; host or cells: Sf9 insect cells (baculovirus, pFastBacHis)
T1 sequence (P35968 786-1356 limits assumed): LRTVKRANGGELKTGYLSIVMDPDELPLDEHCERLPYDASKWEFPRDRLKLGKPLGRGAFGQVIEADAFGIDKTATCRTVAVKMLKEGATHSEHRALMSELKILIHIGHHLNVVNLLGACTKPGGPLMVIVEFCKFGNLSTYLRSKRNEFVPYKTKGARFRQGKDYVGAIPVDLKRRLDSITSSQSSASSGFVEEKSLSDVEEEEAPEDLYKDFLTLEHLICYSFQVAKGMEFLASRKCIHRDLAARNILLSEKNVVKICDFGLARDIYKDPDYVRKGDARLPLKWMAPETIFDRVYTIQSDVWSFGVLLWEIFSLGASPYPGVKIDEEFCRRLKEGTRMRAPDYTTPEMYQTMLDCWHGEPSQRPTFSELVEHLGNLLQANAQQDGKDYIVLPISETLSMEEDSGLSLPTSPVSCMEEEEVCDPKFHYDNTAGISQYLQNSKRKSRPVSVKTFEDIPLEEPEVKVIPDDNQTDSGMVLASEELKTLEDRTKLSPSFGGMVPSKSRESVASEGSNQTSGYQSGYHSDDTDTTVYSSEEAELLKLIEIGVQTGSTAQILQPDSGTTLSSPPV
The assay is described as follows: Inhibition against VEGFR2 kinase (receptor tyrosine kinase activity, HTRF method). It counts as biochemical. The following applies: His6-VEGFR2 cytoplasmic domain, biotin-poly(GT) substrate, ATP, 30° C. 10 minutes, read-out: IC50 (concentration required for 50% inhibition of VEGFR2 kinase activity). The text has this: Measurement of Inhibition Against Receptor Tyrosine Kinase Activity
This assay is used to determine inhibition of a test substance on tyrosine kinase activity. DNA coding for the cytoplasmic domain of VEGFR2 is obtained by total cDNA synthesis (Edwards M, International Biotechnology Lab 5(3), 19–25, 1987) or by cloning. Expression in an appropriate expression system can produce a polypeptide with tyrosine kinase activity. […] For VEGFR2 (Genbank Accession No. L04947), the 1.7 kb DNA fragment described by Terman et al. (Oncogene, 6(9), 1677–1683, 1991), coding for the cytoplasmic domain, beginning with lysine 791 and including the termination codon, was isolated from a human placental cDNA library (purchased from Clontech Laboratories, Inc.) and cloned in a Baculovirus expression vector (pFastBacHis, purchased from GIBCO BRL) The recombinant construct was transfected into insect cells (Spondoptea frugiperda9 (Sf9)) to prepare a recombinant Baculovirus. (Instructions for preparation and use of recombinant Baculovirus maybe found in standard texts, such as “Bac-To-Bac Baculovirus Expression System” (GIBCO BRL).) The cytoplasmic fragment starting from lysine 398 (FGFR1, Genbank Accession No. X52833), the cytoplasmic fragment starting from lysine 558 (PDGFRβ, Genbank Accession No. M21616) or the cytoplasmic fragment starting from lysine 974 (HGFR, Genbank Accession No. J02958) may be cloned and expressed by the same method for use in assays for other tyrosine kinases. EGFR was purchased from Sigma Co. (Product No. E-2645).
For expression of the VEGFR2 tyrosine kinase, Sf9 cells were infected with the VEGFR2 recombinant virus and collected after 48 hours. The collected cells were rinsed with ice-cooled phosphate buffered saline (PBS) and then resuspended using 20 ml of ice-cooled Lysis Buffer (50 mM Tris-HCl (pH 8.5), 5 mM 2-mercaptoethanol, 100 mM KCl, 1 mM phenylmethylsulfonyl fluoride, 1% (v/v) NP-40) per 1.5×10^8 cells. The suspension was centrifuged at 12,000 rpm for 30 minutes at 4° C. and the supernatant was obtained.
The supernatant was added to a Ni—NTA agarose column (3 ml, purchased from Qiagen) equilibrated with Buffer A {20 mM Tris-HCl (pH 8.5), 5 mM 2-mercaptoethanol, 500 mM KCl, 20 mM imidazole, 10% (v/v) glycerol}. The column was washed with 30 ml of Buffer A, and then with 6 ml of Buffer B {20 mM Tris-HCl (pH 8.5), 5 mM 2-mercaptoethanol, 1M KCl, 10% (v/v) glycerol}, and finally with 6 ml of Buffer A. After washing, it was eluted with 6 ml of Buffer C {20 mM Tris-HCl (pH8.5), 5mM2-mercaptoethanol, 100 mMKCl, 100 mM imidazole, 10% (v/v) glycerol}. The eluate was placed on a dialysis membrane (purchased from Spectrum Laboratories) and dialyzed with a dialysis buffer {20 mM Tris-HCl (pH 7.5), 10% (v/v) glycerol, 1 mM dithiothreitol, 0.1 mM Na3VO4, 0.1 mM EGTA}. After dialysis, it was supplied for SDS-electrophoresis, and the recombinant protein (His6-VEGFR2, cytoplasmic domain of VEGFR2 fused with 6 histidine residues at the N-terminus) detected at a molecular weight of approximately 100 kDa with Coumassie Brilliant Blue staining was assayed using BSA (bovine serum albumin, purchased from Sigma Co.) as the standard substance, and stored at −80° C. until use. Using the same method for the cytoplasmic domains of FGFR1, PDGFRβ and HGFR yielded respective recombinant proteins fused with 6 histidine residues at the N-termini (His6-FGFR1, His6-PDGFRβ or His6-HGFR).
The tyrosine kinase reaction was conducted as follows. […]
For orientation: TR-FRET usually uses a lanthanide donor and a delayed reading to cut background.
With `COc1ccc(NC(=O)Nc2ccc(Oc3ccnc4cc(OCCCc5ccncc5)c(C#N)cc34)cc2)cc1` [Example 1], the IC50 is 51 nM.
On the same count and under the same terms, the result for `COCCOc1cc2nccc(Oc3ccc(NC(=O)Nc4ccccc4)cc3)c2cc1C#N` [Example 65, N-(4-(6-cyano-7-(methoxyethoxy)-4-quinolyl)oxyphenyl)-N′-phenylurea] reads 15 nM; that for `COCCOc1cc2nccc(Oc3ccc(NC(=O)NC4CC4)cc3)c2cc1C(N)=O` [Example 116, 4-(4-((Cyclopropylamino)carbonyl)aminophenoxy)-7-(2-methoxyethoxy)-6-quinolinecarboxamide], 4.2 nM.
Still for that read-out and setting: the result for `O=C(Nc1ccc(F)cc1)Nc1ccc(Oc2ccnc3[nH]c(=O)ccc23)cc1` [Example 183, N-(4-Fluorophenyl)-N′-{4-[(7-oxo-7,8-dihydro[1,8]naphthyridin-4-yl)oxy]phenyl}urea] reads 29 nM.
With `CCOC(=O)/C=C/c1c(Oc2ccc(NC(=O)Nc3ccc(F)cc3)cc2)ccnc1NC(=O)C1CC1` [Example 184, Ethyl(E)-3-[2-[(cyclopropylcarbonyl)amino]-4-(4-{[(4-fluoroanilino)carbonyl]amino}phenoxy)-3-pyridyl]-2-propenoate], the IC50 was determined as 59 nM.
For the molecule `O=C(CCCN1CCC(O)CC1)Nc1cc(Oc2ccc3c(ccn3C(=O)NC3CC3)c2)ccn1` [Example 187, N1-Cyclopropyl-5-[(2-{[4-(4-hydroxypiperidino)butanoyl]amino}-4-pyridyl)oxy]-1H-1-indolecarboxamide], the IC50 is 14 nM.
On the same count and under the same terms, the result for `O=C(Nc1ccc(Oc2ccnc(NC(=O)C3CC3)c2)cc1Cl)NC1CC1` [Example 208] reads 9.2 nM; that for `COCCOc1cc2nccc(Sc3ccc(NC(=O)Nc4nccs4)s3)c2cc1C#N` [Example 252, 1-{5-[6-Cyano-7-(2-methoxyethoxy)-quinolin-4-ylsulfanyl]-thiophen-2-yl}-3-(thiazol-2-yl)urea], 31 nM; that for `COCCOc1cc2nccc(Sc3ccc(NC(=O)Nc4ccc(C)cc4)s3)c2cc1C#N` [Example 259, 1-{5-[6-Cyano-7-(2-methoxyethoxy)quinolin-4-ylsulfanyl]thiophen-2-yl}-3-(para-tolyl)urea], 16 nM.
Still for that read-out and setting: then `COCCOc1cc2nccc(Sc3ccc(NC(=O)Nc4cccc(C#N)c4)s3)c2cc1C#N` [Example 260, 1-{5-[6-Cyano-7-(2-methoxyethoxy)quinolin-4-ylsulfanyl]-thiophen-2-yl}-3-(3-cyanophenyl)-urea], with 11 nM.
Consider `COCCOc1cc2nccc(Oc3ccc(NC(=O)NC4CC4)c(Cl)c3)c2cc1C#N` [Example 262], for which the IC50 was 9.5 nM.
Still for that read-out and setting: the result for `COc1cc2nccc(Oc3ccc(N(C)C(=O)NC4CC4)cc3)c2cc1C(N)=O` [Example 350, 4-(4-(Cyclopropylaminocarbonyl)-4-methylaminophenoxy)-7-methoxy-6-quinolinecarboxamide] reads 43 nM; that for `COc1cc2nccc(Oc3ccc(NC(=O)NCCCSC)c(F)c3)c2cc1C(N)=O` [Example 353, 4-(3-Fluoro-4-((3-methylthiopropylamino)carbonyl)aminophenoxy)-7-methoxy-6-quinolinecarboxamide], 2.2 nM.
Same read-out and setting: the result for `COCCOc1cc2nccc(Oc3ccc(NC(=O)NCCF)c(F)c3)c2cc1C(N)=O` [Example 364, 4-(4-(3-Fluoro(2-fluoroethylamino)carbonyl)aminophenoxy)-7-(2-methoxyethoxy)-6-quinolinecarboxamide] reads 8.1 nM.
The same measure, in the same setting: then `COCCOc1cc2nccc(Oc3ccc(NC(=O)NCCCF)c(F)c3)c2cc1C(N)=O` [Example 365], with 5.4 nM; and `NC(=O)c1cc2c(Oc3ccc(NC(=O)NC4CC4)c(F)c3)ccnc2cc1OCCN1CCOCC1` [Example 375, 4-(4-(Cyclopropylaminocarbonyl)amino-3-fluorophenoxy)-7-(2-(4-morpholino)ethoxy)-6-quinolinecarboxamide], with 16 nM.
For the molecule `NC(=O)c1cc2c(Oc3ccc(NC(=O)NC4CC4)c(Cl)c3)ccnc2cc1OCCCO` [Example 387, 4-(3-Chloro-4-(cyclopropylaminocarbonyl)aminophenoxy)-7-(3-hydroxypropoxy)-6-quinolinecarboxamide], the IC50 was 4.1 nM.
Still for that read-out and setting: then `CN1CCC(COc2cc3nccc(Oc4ccc(NC(=O)NC5CC5)c(Cl)c4)c3cc2C(N)=O)CC1` [Example 394, 4-(3-Chloro-4-(cyclopropylaminocarbonyl)aminophenoxy)-7-((1-methyl-4-piperidyl)methoxy)-6-quinolinecarboxamide], with 15 nM; and `COCCNC(=O)c1cc2c(Oc3ccc(NC(=O)NC4CC4)c(Cl)c3)ccnc2cc1OC` [Example 398, N6-(2-Methoxyethyl)-4-(3-chloro-4-(((cyclopropylamino)carbonyl)amino)phenoxy)-7-methoxy-6-quinolinecarboxamide], with 3.5 nM.
Still for that read-out and setting: the result for `COc1cc2nccc(Oc3ccc(NC(=O)NC4CC4)c(Cl)c3)c2cc1C(=O)NCCO` [Example 410, N6-(2-Hydroxyethyl)-4-(3-chloro-4-(((cyclopropylamino)carbonyl)amino)phenoxy)-7-methoxy-6-quinolinecarboxamide] reads 2.2 nM; that for `COc1cc2nccc(Oc3ccc(NC(=O)NC4CC4)c(Cl)c3)c2cc1C(=O)NCC1OCCO1` [Example 413, N6-(1,3-Dioxolan-2-ylmethyl)-4-(3-chloro-4-(((cyclopropylamino)carbonyl)amino)phenoxy)-7-methoxy-6-quinolinecarboxamide], 3.2 nM; that for `COc1cc2nccc(Oc3ccc(N(C)C(=O)Nc4ccc(F)cc4)cc3)c2cc1C(=O)NC1CC1` [Example 435], 22 nM.
On the same count and under the same terms, then `CONC(=O)c1cc2c(Oc3ccc(N(C)C(=O)Nc4ccc(F)cc4)cc3)ccnc2cc1OC` [Example 437, N6-Methoxy-4-(4-(((4-fluoroanilino)carbonyl)(methyl)amino)phenoxy)-7-methoxy-6-quinolinecarboxamide], with 9.9 nM; and `COc1cc2nccc(Oc3ccc(NC(=O)NC4CC4)c(Cl)c3)c2cc1C(=O)NCC(N)=O` [Example 449, N6-(2-Amino-2-oxoethyl)-4-(3-chloro-4-(((cyclopropylamino)carbonyl)amino)phenoxy)-7-methoxy-6-quinolinecarboxamide], with 2.2 nM; and `O=C(Nc1ccc(F)cc1)Nc1ccc(Oc2ccnc(NC(=O)c3cccnc3)c2)cc1` [Example 465, N-[4-(2-Nicotinoylaminopyridin-4-yl)oxyphenyl]-N′-(4-fluorophenyl)urea], with 13 nM.
Regarding `CC(=O)Nc1cc(Oc2ccc(NC(=O)Nc3cccc(S(C)(=O)=O)c3)cc2)ncn1` [Example 556, N-(6-(4-(3-(3-Methylsulfonylphenyl)ureido)phenoxy)pyrimidin-4-yl)acetamide], the IC50 was 14 nM.

The values are drawn from patent US7253286B2, “Nitrogen-containing aromatic derivatives” (Eisai Co., Ltd, priority 2000, dated 2007).
